Assay results from patent US20220079924A1, “GLUCOCORTICOID RECEPTOR MODULATORS” (ORIC Pharmaceuticals, Inc., priority 2018, published 2022).

Target: T1, GR (Homo sapiens, UniProt P04150)
T1 construct: expressed in transfected cells; host or cells: CHO-K1 (CHO-K1-GR-MMTV-Luc reporter cells)
T1 sequence (P04150 1-777): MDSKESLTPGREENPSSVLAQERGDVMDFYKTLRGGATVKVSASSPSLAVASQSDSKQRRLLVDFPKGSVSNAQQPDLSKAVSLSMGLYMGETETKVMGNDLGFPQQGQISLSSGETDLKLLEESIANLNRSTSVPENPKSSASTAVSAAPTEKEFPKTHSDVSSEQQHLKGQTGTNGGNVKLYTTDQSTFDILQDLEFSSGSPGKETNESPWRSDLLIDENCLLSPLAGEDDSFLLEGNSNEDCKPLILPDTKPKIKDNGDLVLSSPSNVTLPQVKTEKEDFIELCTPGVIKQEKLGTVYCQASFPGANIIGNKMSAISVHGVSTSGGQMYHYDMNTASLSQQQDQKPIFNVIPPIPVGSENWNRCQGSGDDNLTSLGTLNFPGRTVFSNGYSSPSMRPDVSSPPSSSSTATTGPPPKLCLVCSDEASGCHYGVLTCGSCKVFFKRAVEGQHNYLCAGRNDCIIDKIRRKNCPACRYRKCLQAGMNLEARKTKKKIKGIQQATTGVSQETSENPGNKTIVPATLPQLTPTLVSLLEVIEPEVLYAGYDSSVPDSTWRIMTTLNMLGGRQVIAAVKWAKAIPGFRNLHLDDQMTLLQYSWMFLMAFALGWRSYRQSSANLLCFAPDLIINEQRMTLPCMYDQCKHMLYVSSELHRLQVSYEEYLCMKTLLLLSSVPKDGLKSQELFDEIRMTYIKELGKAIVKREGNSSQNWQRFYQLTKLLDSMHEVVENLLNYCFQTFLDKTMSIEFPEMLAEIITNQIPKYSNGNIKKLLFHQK
Experiment: In Vitro GR Luciferase Reporter Assay (antagonist assay)
Format: cell-based
Details: CHO-K1-GR-MMTV-Luc reporter cells, 10 nM Dexamethasone, 18-24 hours
Procedure: Example A: In Vitro GR Luciferase Reporter Assay
Cell Line: CHO-K1-GR-MMTV-Luc reporter cells
Culture Media: DMEM (with phenol red)+10% FBS
Assay Media: DMEM (without phenol red)+10% CSS
Culture CHO-K1-GR-MMTV-Luc reporter cells in T175 flasks in Culture Media at conditions less than 90% confluence.
Using Bravo (Agilent) liquid handler:
200× DMSO 1:3 serial dilutions of control and test compounds in 96-well non-sterile V bottom plate in DMSO, 12 points for each compound were prepared.
Prepared 5× compound serial dilutions: Add 97.5 μL/well of Assay Media into 96-well non-sterile V bottom plate then added 2.5 ul of 200× concentration of compounds and mix well.
Seeded cells for Antagonist Assay: 5200 CHO-K1-GR-MMTV-Luc reporter cells were seeded in Greiner #781080 flat clear bottom 384-well white TC plate in 20 ul of Assay Media containing 12.5 nM Dexamethasone (final concentration=10 nM).
Added compounds: 5 μl of 5× compounds were added to appropriate wells and followed with a quick spin (1000 rpm, 10 sec) to bring media and cells to the bottom of plate. The plates were covered with SealMate film to avoid evaporation and placed in 37° C. incubator for approximately 18-24 hours.
Read plates: Equilibrate appropriate amount of Promega OneGlo luciferase reagent to room temperature. Remove the plates from incubator and add 25 uL of OneGlo reagent/well by Bravo and read the plates on Tecan Spark plate reader within 15 minutes.
The ability of the compounds disclosed herein to inhibit GR activity was quantified and the respective IC50 value was determined. Table 1 provides the cellular IC50 values of compounds disclosed herein.

| SMILES | IC50 |
| --- | --- |
| O=C(c1cc(F)ccn1)[C@]12Cc3cnn(-c4ccc(F)nc4)c3C=C1CC[C@H](N(C1CC1)S(=O)(=O)c1ccc(F)cc1)C2 [Example 27] | ≤ 100 nM |
| O=C(c1cc(Cl)ccn1)[C@]12Cc3cnn(-c4ccc(F)cc4)c3C=C1CC[C@H](N(CC(F)F)S(=O)(=O)c1ccc(F)cc1)C2 [Example 28] | ≤ 100 nM |
| Cn1cc(S(=O)(=O)N(CCF)[C@H]2CCC3=Cc4c(cnn4-c4ccc(F)cc4)C[C@]3(C(=O)c3cc(Cl)ccn3)C2)cn1 [Example 29] | ≤ 100 nM |
| Cn1cnc(S(=O)(=O)N(CC(F)F)[C@H]2CCC3=Cc4c(cnn4-c4ccc(F)cc4)C[C@]3(C(=O)c3cc(F)ccn3)C2)n1 [Example 30] | ≤ 100 nM |
| Cn1cnc(S(=O)(=O)N(CC(F)F)[C@H]2CCC3=Cc4c(cnn4-c4ccc(F)cc4)C[C@]3(C(=O)c3cc(Cl)ccn3)C2)n1 [Example 31] | ≤ 100 nM |
| Cn1cc(S(=O)(=O)N(CCF)[C@H]2CCC3=Cc4c(cnn4-c4ccc(F)cc4)C[C@]3(C(=O)c3cc(C(F)(F)F)ccn3)C2)cn1 [Example 32] | ≤ 100 nM |
| Cn1cnc(S(=O)(=O)N([C@H]2CCOC2)[C@H]2CCC3=Cc4c(cnn4-c4ccc(F)cc4)C[C@]3(C(=O)c3cc(C(F)(F)F)ccn3)C2)n1 [Example 33] | ≤ 100 nM |
| O=C(c1cc(F)ccn1)[C@]12Cc3cnn(-c4ccc(F)cc4)c3C=C1CC[C@H](N(CC(F)(F)F)S(=O)(=O)c1ccc(F)cc1)C2 [Example 34] | ≤ 100 nM |
| C[C@H]([C@H]1CCC2=Cc3c(cnn3-c3ccc(F)cc3)C[C@]2(C(=O)c2ccc(C(F)(F)F)cn2)C1)S(=O)(=O)c1cnn(C)c1 [Example 35] | ≤ 100 nM |
| C[C@@H]([C@H]1CCC2=Cc3c(cnn3-c3ccc(F)cc3)C[C@]2(C(=O)c2ccc(C(F)(F)F)cn2)C1)S(=O)(=O)c1cnn(C)c1 [Example 36] | ≤ 100 nM |
| Cn1cc(S(=O)(=O)N(CC(F)F)[C@H]2CCC3=Cc4c(cnn4-c4ccc(F)cc4)C[C@]3(C(=O)c3cc(C(F)(F)F)ccn3)C2)cn1 [Example 37] | ≤ 100 nM |
| CC(C)N([C@H]1CCC2=Cc3c(cnn3-c3ccc(F)nc3)C[C@]2(C(=O)c2ncc(C(F)(F)F)s2)C1)S(=O)(=O)c1ncn(C)n1 [Example 38] | ≤ 100 nM |
| Cn1cc(S(=O)(=O)N(C2CC2)[C@H]2CCC3=Cc4c(cnn4-c4ccnc(F)c4)C[C@]3(C(=O)c3cc(C(F)(F)F)ccn3)C2)cn1 [Example 39] | ≤ 100 nM |
| Cn1cnc(S(=O)(=O)N(C2CC2)[C@H]2CCC3=Cc4c(cnn4-c4ccnc(F)c4)C[C@]3(C(=O)c3cc(C(F)(F)F)ccn3)C2)n1 [Example 40] | ≤ 100 nM |
| Cn1cnc(S(=O)(=O)N(CC(F)(F)F)[C@H]2CCC3=Cc4c(cnn4-c4ccc(F)cc4)C[C@]3(C(=O)c3cc(Cl)ccn3)C2)n1 [Example 41] | ≤ 100 nM |
| Cn1cnc(S(=O)(=O)N([C@H]2CCC3=Cc4c(cnn4-c4ccc(F)cc4)C[C@]3(C(=O)c3cc(C(F)(F)F)ccn3)C2)[C@H]2C[C@](O)(C(F)(F)F)C2)n1 [Example 42] | 100 to 1000 nM |
| Cn1cnc(S(=O)(=O)N([C@H]2CCC3=Cc4c(cnn4-c4ccc(F)cc4)C[C@]3(C(=O)c3cc(F)ccn3)C2)[C@H]2C[C@](O)(C(F)(F)F)C2)n1 [Example 43] | 100 to 1000 nM |
| Cn1cnc(S(=O)(=O)N([C@H]2CCC3=Cc4c(cnn4-c4ccc(F)cc4)C[C@]3(C(=O)c3cc(Cl)ccn3)C2)[C@H]2C[C@](O)(C(F)(F)F)C2)n1 [Example 44] | ≤ 100 nM |
| Cn1cnc(S(=O)(=O)N([C@H]2CCC3=Cc4c(cnn4-c4ccc(F)cc4)C[C@]3(C(=O)c3cc(Cl)ccn3)C2)[C@H]2C[C@@](O)(C(F)(F)F)C2)n1 [Example 45] | ≤ 100 nM |
| Cn1cnc(S(=O)(=O)N(C2CC2)[C@H]2CCC3=Cc4c(cnn4-c4ccc(F)cc4)C[C@]3(C(=O)c3ncc(C(C)(C)C)s3)C2)n1 [Example 46] | ≤ 100 nM |

| SMILES | IC50 |
| --- | --- |
| Cn1ccc(S(=O)(=O)N(C2CC2)[C@H]2CCC3=Cc4c(cnn4-c4ccc(F)cc4)C[C@]3(C(=O)c3cc(C(F)(F)F)ccn3)C2)c1 [Example 47] | ≤ 100 nM |
| Cn1cnc(S(=O)(=O)N(C2CC2)[C@H]2CCC3=Cc4c(cnn4-c4ccc(F)nc4)C[C@]3(C(=O)c3cc(F)ccn3)C2)n1 [Example 48] | ≤ 100 nM |
| CCN([C@H]1CCC2=Cc3c(cnn3-c3ccc(F)nc3)C[C@]2(C(=O)c2cc(C(F)(F)F)ccn2)C1)S(=O)(=O)c1ncn(C)n1 [Example 49] | ≤ 100 nM |
| CCN([C@H]1CCC2=Cc3c(cnn3-c3ccc(F)nc3)C[C@]2(C(=O)c2cc(Cl)ccn2)C1)S(=O)(=O)c1ncn(C)n1 [Example 50] | ≤ 100 nM |
| CC(C)N([C@H]1CCC2=Cc3c(cnn3-c3ccc(F)nc3)C[C@]2(C(=O)c2cc(C(F)(F)F)ccn2)C1)S(=O)(=O)c1ncn(C)n1 [Example 51] | ≤ 100 nM |
| CC(C)N([C@H]1CCC2=Cc3c(cnn3-c3ccc(F)nc3)C[C@]2(C(=O)c2cc(Cl)ccn2)C1)S(=O)(=O)c1ncn(C)n1 [Example 52] | ≤ 100 nM |
| O=C(c1cc(Cl)ccn1)[C@]12Cc3cnn(-c4ccc(F)cc4)c3C=C1CC[C@H](N(CC(F)(F)F)S(=O)(=O)c1ccc(F)cc1)C2 [Example 53] | ≤ 100 nM |
| Cn1cc(S(=O)(=O)N(Cc2ncco2)[C@H]2CCC3=Cc4c(cnn4-c4ccc(F)cc4)C[C@]3(C(=O)c3cc(C(F)(F)F)ccn3)C2)cn1 [Example 54] | ≤ 100 nM |
| Cn1cnc(S(=O)(=O)N(C2CC2)[C@H]2CCC3=Cc4c(cnn4-c4ccc(F)cn4)C[C@]3(C(=O)c3cc(C(F)(F)F)ccn3)C2)n1 [Example 55] | ≤ 100 nM |
| C[C@H]([C@H]1CCC2=Cc3c(cnn3-c3ccc(F)cc3)C[C@]2(C(=O)c2ncc(C(F)(F)F)s2)C1)S(=O)(=O)c1ncn(C)n1 [Example 56] | ≤ 100 nM |
| C[C@@H]([C@H]1CCC2=Cc3c(cnn3-c3ccc(F)cc3)C[C@]2(C(=O)c2ncc(C(F)(F)F)s2)C1)S(=O)(=O)c1ncn(C)n1 [Example 57] | ≤ 100 nM |
| Cn1ccc(S(=O)(=O)N(C2CC2)[C@H]2CCC3=Cc4c(cnn4-c4ccc(F)cc4)C[C@]3(C(=O)c3cc(F)ccn3)C2)c1 [Example 58] | ≤ 100 nM |
| C[C@H]([C@H]1CCC2=Cc3c(cnn3-c3ccc(F)cc3)C[C@]2(C(=O)c2ncc(C(C)(C)C)s2)C1)S(=O)(=O)c1cnn(C)c1 [Example 59] | ≤ 100 nM |
| Cn1cc(S(=O)(=O)N(CCOC(F)(F)F)[C@H]2CCC3=Cc4c(cnn4-c4ccc(F)cc4)C[C@]3(C(=O)c3cc(C(F)(F)F)ccn3)C2)cn1 [Example 60] | ≤ 100 nM |
| Cn1cc(S(=O)(=O)N(C2CC2)[C@H]2CCC3=Cc4c(cnn4-c4ccc(F)nc4)C[C@]3(C(=O)c3ncc(C(C)(C)C)s3)C2)cn1 [Example 61] | ≤ 100 nM |
| C[C@H]([C@H]1CCC2=Cc3c(cnn3-c3ccc(F)cc3)C[C@]2(C(=O)c2cc(F)ccn2)C1)S(=O)(=O)c1cnn(C)c1 [Example 62] | ≤ 100 nM |
| CC(C)N([C@H]1CCC2=Cc3c(cnn3-c3ccc(F)cc3)C[C@]2(C(=O)c2ncc(C(C)(C)C)s2)C1)S(=O)(=O)c1cnn(C)c1 [Example 63] | ≤ 100 nM |
| CC(C)N([C@H]1CCC2=Cc3c(cnn3-c3ccc(F)cc3)C[C@]2(C(=O)c2cc(C(C)(C)C)ccn2)C1)S(=O)(=O)c1cnn(C)c1 [Example 64] | ≤ 100 nM |
| Cn1cnc(S(=O)(=O)N(C2CC2)[C@H]2CCC3=Cc4c(cnn4-c4ccc(F)cn4)C[C@]3(C(=O)c3ncc(C(C)(C)C)s3)C2)n1 [Example 65] | ≤ 100 nM |
| CC(C)N([C@H]1CCC2=Cc3c(cnn3-c3ccc(F)nc3)C[C@]2(C(=O)c2cc(F)ccn2)C1)S(=O)(=O)c1ncn(C)n1 [Example 66] | ≤ 100 nM |
